Data set [1] deals with Echinochloa oryzicola. Description: Herbicidal activity against Echinochloa oryzicola under greenhouse condition assessed as growth inhibition at 500 g /ha measured after 6 days. In kind it is functional, organism-based.
In data set [2] the test system is Echinochloa oryzicola. In words: Herbicidal activity against Echinochloa oryzicola under greenhouse condition assessed as growth inhibition at 500 g /ha measured after 33 days. In kind it is functional, organism-based.
Data set [3] deals with Echinochloa oryzicola. Description: Herbicidal activity against Echinochloa oryzicola under greenhouse condition assessed as time duration of residual effect at 500 g /ha. In kind it is functional.
The test system of data set [4] is Echinochloa oryzicola. In words: Herbicidal activity against Echinochloa oryzicola grown in water-drained pot under greenhouse condition assessed as growth inhibition at 125 g /ha measured after 42 days. The format is functional, organism-based.
Data set [5] concerns Echinochloa oryzicola. In words: Herbicidal activity against Echinochloa oryzicola grown in water-drained pot under greenhouse condition assessed as time duration of residual effect at 125 g /ha. In kind it is functional.
The subject of data set [6] is Echinochloa oryzicola. In words: Herbicidal activity against Echinochloa oryzicola grown in water-drained pot under greenhouse condition assessed as growth inhibition at 500 g /ha measured after 20 days. In kind it is functional, organism-based.
The test system of data set [7] is Echinochloa oryzicola. In words: Herbicidal activity against Echinochloa oryzicola grown in water-drained pot under greenhouse condition assessed as growth inhibition at 125 g /ha measured after 27 days. In kind it is functional, organism-based.
Data set [8] concerns Echinochloa oryzicola. Description: Herbicidal activity against Echinochloa oryzicola grown in water-drained pot under greenhouse condition assessed as growth inhibition at 125 g /ha measured after 13 days. The format is functional, organism-based.
Data set [9] deals with Echinochloa oryzicola. In words: Herbicidal activity against Echinochloa oryzicola grown in water-drained pot under greenhouse condition assessed as time duration of residual effect at 500 g /ha. The format is functional.
The subject of data set [10] is Echinochloa oryzicola. In words: Herbicidal activity against Echinochloa oryzicola under greenhouse condition assessed as growth inhibition at 500 g /ha measured after 13 days. In kind it is functional, organism-based.
The subject of data set [11] is Echinochloa oryzicola. In words: Herbicidal activity against Echinochloa oryzicola under greenhouse condition assessed as growth inhibition at 125 g /ha measured after 42 days. In kind it is functional, organism-based.
For data set [12], the system named is Echinochloa oryzicola. In words: Herbicidal activity against Echinochloa oryzicola under greenhouse condition assessed as time duration of residual effect at 125 g /ha. In kind it is functional.
The subject of data set [13] is Echinochloa oryzicola. Description: Herbicidal activity against Echinochloa oryzicola under greenhouse condition assessed as growth inhibition at 500 g /ha measured after 42 days. The format is functional, organism-based.
Data set [14] deals with Echinochloa oryzicola. Description: Herbicidal activity against Echinochloa oryzicola grown in water-drained pot under greenhouse condition assessed as growth inhibition at 125 g /ha measured after 20 days. The format is functional, organism-based.
The test system of data set [15] is Echinochloa oryzicola. Description: Herbicidal activity against Echinochloa oryzicola grown in water-drained pot under greenhouse condition assessed as growth inhibition at 500 g /ha measured after 27 days. The format is functional, organism-based.
Data set [16] concerns Echinochloa oryzicola. Description: Herbicidal activity against Echinochloa oryzicola grown in water-drained pot under greenhouse condition assessed as growth inhibition at 500 g /ha measured after 33 days. The format is functional, organism-based.
Data set [17] relates to Echinochloa oryzicola. Description: Herbicidal activity against Echinochloa oryzicola grown in water-drained pot under greenhouse condition assessed as growth inhibition at 500 g /ha measured after 42 days. In kind it is functional, organism-based.
Data set [18] deals with Echinochloa oryzicola. In words: Herbicidal activity against Echinochloa oryzicola grown in water-drained pot under greenhouse condition assessed as growth inhibition at 500 g /ha measured after 13 days. In kind it is functional, organism-based.
Data set [19] has as its system Echinochloa oryzicola. In words: Herbicidal activity against Echinochloa oryzicola under greenhouse condition assessed as growth inhibition at 125 g /ha measured after 6 days. In kind it is functional, organism-based.
Data set [20] has as its system Echinochloa oryzicola. In words: Herbicidal activity against Echinochloa oryzicola under greenhouse condition assessed as growth inhibition at 125 g /ha measured after 20 days. In kind it is functional, organism-based.
In data set [21] the test system is Echinochloa oryzicola. In words: Herbicidal activity against Echinochloa oryzicola grown in water-drained pot under greenhouse condition assessed as growth inhibition at 125 g /ha measured after 33 days. The format is functional, organism-based.
The subject of data set [22] is Echinochloa oryzicola. In words: Herbicidal activity against Echinochloa oryzicola under greenhouse condition assessed as growth inhibition at 125 g /ha measured after 13 days. In kind it is functional, organism-based.
The subject of data set [23] is Echinochloa oryzicola. In words: Herbicidal activity against Echinochloa oryzicola under greenhouse condition assessed as growth inhibition at 125 g /ha measured after 27 days. The format is functional, organism-based.
Data set [24] deals with Echinochloa oryzicola. Description: Herbicidal activity against Echinochloa oryzicola grown in water-drained pot under greenhouse condition assessed as growth inhibition at 125 g /ha measured after 6 days. The format is functional, organism-based.
Data set [25] relates to Echinochloa oryzicola. Description: Herbicidal activity against Echinochloa oryzicola under greenhouse condition assessed as growth inhibition at 500 g /ha measured after 27 days. The format is functional, organism-based.
For data set [26], the system named is Echinochloa oryzicola. In words: Herbicidal activity against Echinochloa oryzicola under greenhouse condition assessed as growth inhibition at 125 g /ha measured after 33 days. The format is functional, organism-based.
Data set [27] has as its system Echinochloa oryzicola. In words: Herbicidal activity against Echinochloa oryzicola grown in water-drained pot under greenhouse condition assessed as growth inhibition at 500 g /ha measured after 6 days. The format is functional, organism-based.
Data set [28] concerns Echinochloa oryzicola. In words: Herbicidal activity against Echinochloa oryzicola under greenhouse condition assessed as growth inhibition at 500 g /ha measured after 20 days. The format is functional, organism-based.
Data set [29] relates to Oryza sativa. Description: Phytotoxicity against two-leaf stage Oryza sativa cv. Nihonbare (rice) planted 3 cm depth measured after […]. In kind it is organism-based. The note with it: in vivo.
Data set [30] relates to Echinochloa oryzicola. In words: Pre-emergence herbicide activity against Echinochloa oryzicola under greenhouse condition measured after 14 to 20 days. The format is functional.
Data set [31] concerns Schoenoplectiella juncoides. In words: Herbicide activity against Schoenoplectiella juncoides under greenhouse condition compound treated at emergence-stage measured after 14 to 20 days. The format is functional.
In data set [32] the test system is Sagittaria pygmaea. In words: Herbicide activity against Sagittaria pygmaea under greenhouse condition compound treated at 0.5 leaf-stage measured after 14 to 20 days. In kind it is functional.
Data set [33] deals with Oryza sativa. In words: Phytotoxicity against two-leaf stage Oryza sativa cv. Nihonbare (rice) planted 1 cm depth measured after […]. The note with it: in vivo. The format is organism-based.
The subject of data set [34] is Echinochloa oryzicola. In words: Herbicide activity against Echinochloa oryzicola under greenhouse condition compound treated at 2 leaf-stage measured after 14 to 20 days. In kind it is functional.

Calls of active or inactive are those of the source. No cut-off for these calls is given here.

As to `CCCOCCN(C(=O)CCl)c1c(CC)cccc1CC` [PRETILACHLOR], the “growth inhibition (GI)” value in data set [1], in [2], in [6], in data set [8], in data set [10] and in data set [15] was “Active” in each case. Further, the “growth inhibition (GI)” value in data set [16], in [18], in [19], in data set [20], in data set [22] and in data set [24] was “Active” throughout. Also, the “growth inhibition (GI)” value in [25], in data set [27] and in [28] was “Active” in each case. Besides, the Time was 27 days in [3], 6 days in data set [5], 16 days in data set [9] and 13 days in data set [12]. In addition, the “growth inhibition (GI)” value in data set [4], in [7], in data set [11], in [13], in data set [14] and in data set [17] was “inactive” in each case. The “growth inhibition (GI)” value in data set [21], in [23] and in data set [26] was “inactive” in each case.

For the compound `CC1=C(c2ccccc2)C(=O)N(C(C)(C)c2nc3cc(C(=O)O)ccc3s2)C1`, the figures for the MTD in data set [29] and in data set [33] were 20 g/acre and 10 g/acre, respectively. The MED is given as 80 g/acre in data set [30], 80 g/acre in data set [31], 80 g/acre in data set [32] and below 5 g/acre in data set [34].

With `CC1=C(c2ccccc2C(F)(F)F)C(=O)N(C(C)(C)c2nc3ccccc3s2)C1`, the MTD in data set [29] is on record as 40 g/acre; in data set [33] it was 20 g/acre. In addition, the MED in data set [30] is on record as 20 g/acre; in data set [31], 80 g/acre; in [32], 5 g/acre; in [34], below 5 g/acre.

Take `CC1=C(c2cccc(Cl)c2)C(=O)N(C(C)(C)c2nc3ccccc3s2)C1`: the MTD is listed as 10 g/acre in data set [29] and 5 g/acre in data set [33]. Moreover, the MED in data set [30] is recorded as 10 g/acre; in [31] it was 40 g/acre; in data set [32], 80 g/acre; in data set [34], below 5 g/acre.

Consider `CC(=O)OC1=C(c2ccccc2)C(=O)N(C(C)(C)c2nc3ccccc3s2)C1`, for which the MTD in [29] and in data set [33] was below 20 g/acre throughout. The MED in data set [30] is 80 g/acre; in data set [31], 80 g/acre; in [32], 80 g/acre; in [34], below 5 g/acre.

In the case of `CC1=C(c2ccccc2)C(=O)N(C(C)(C)c2nc3ccccc3o2)C1`, the MTD is on record as 20 g/acre in data set [29] and 5 g/acre in [33]. Further, the MED in data set [30] is listed as 0.625 g/acre; in data set [31], 2.5 g/acre; in [32] it was 10 g/acre; in data set [34], 5 g/acre.

For `CC1=C(c2ccccc2)C(=O)N(C(C)(C)c2nc3ccc(I)cc3s2)C1`, the MTD was found to be 10 g/acre in data set [29] and 20 g/acre in data set [33]. Further, the MED is 5 g/acre in data set [30], 20 g/acre in data set [31], 20 g/acre in [32] and below 5 g/acre in data set [34].

With `CC1=C(c2ccccc2)C(=O)N(C(C)(C)c2csc3ccccc23)C1`, the MTD in data set [29] came to 10 g/acre; in [33] it was 2.5 g/acre. The MED in [30] is reported as 2.5 g/acre; in data set [31], 80 g/acre; in data set [32] it was 80 g/acre; in data set [34], below 5 g/acre.

For the compound `CC(C)(c1nc2ccccc2s1)N1CC(C(F)(F)F)=C(c2ccccc2)C1=O`, the MTD in data set [29] was found to be 10 g/acre; in data set [33], 5 g/acre. For the same compound, the MED is on record as 1.25 g/acre in data set [30], 80 g/acre in data set [31], 40 g/acre in [32] and below 5 g/acre in [34].

For the compound `COc1ccc2nc(C(C)(C)N3CC(C)=C(c4ccccc4)C3=O)sc2c1`, the MTD is listed as 10 g/acre in data set [29] and above 5 g/acre in [33]. The MED came to 0.313 g/acre in data set [30], 20 g/acre in [31], 40 g/acre in data set [32] and 2.5 g/acre in data set [34].

In the case of `COc1ccccc1C1=C(C)CN(C(C)(C)c2nc3ccccc3s2)C1=O`, the MTD in data set [29] is 5 g/acre; in data set [33], above 5 g/acre. In addition, the MED in [30] is 5 g/acre; in [31] it was 5 g/acre; in data set [32] it was 5 g/acre; in [34], below 5 g/acre.

(Values after ChEMBL document CHEMBL3046147, “Synthesis and Herbicidal Activity of 1-Arylalkyl-3-pyrrolin-2-one Derivatives” (J Pestic Sci, 2000).)
